The text below walks through data of US8466113B2, “4-isopropylphenyl glucitol compounds as SGLT1 inhibitors” (Taisho Pharmaceutical Co., Ltd., priority 2009, dated 2013).

One data set deals with T1, human SGLT1 (Homo sapiens, UniProt P13866).
T1 construct: expressed in transfected cells; host or cells: CHO-K1
T1 sequence (P13866 1-664): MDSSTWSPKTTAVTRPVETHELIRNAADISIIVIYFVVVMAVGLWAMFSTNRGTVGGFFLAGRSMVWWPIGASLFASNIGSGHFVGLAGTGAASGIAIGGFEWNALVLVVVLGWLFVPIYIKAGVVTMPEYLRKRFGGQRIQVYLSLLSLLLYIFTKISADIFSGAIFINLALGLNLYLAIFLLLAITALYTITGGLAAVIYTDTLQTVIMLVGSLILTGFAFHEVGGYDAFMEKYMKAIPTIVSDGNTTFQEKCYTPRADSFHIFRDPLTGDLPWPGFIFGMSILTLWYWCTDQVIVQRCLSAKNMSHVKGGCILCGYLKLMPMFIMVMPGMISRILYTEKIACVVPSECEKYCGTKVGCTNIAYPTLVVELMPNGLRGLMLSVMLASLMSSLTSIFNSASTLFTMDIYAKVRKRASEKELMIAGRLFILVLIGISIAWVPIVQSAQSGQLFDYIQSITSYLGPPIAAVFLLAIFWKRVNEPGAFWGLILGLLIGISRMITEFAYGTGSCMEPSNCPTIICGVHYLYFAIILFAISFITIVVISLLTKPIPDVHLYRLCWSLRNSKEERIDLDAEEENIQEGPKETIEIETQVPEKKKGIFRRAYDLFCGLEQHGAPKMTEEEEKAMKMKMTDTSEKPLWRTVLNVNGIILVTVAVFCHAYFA
Nature of the data set: Inhibition test for sodium-dependent sugar uptake in CHO-K1 cells stably expressing human SGLT1. As to conditions: [14C]methyl α-D-glucopyranoside uptake, 37° C., 30 minutes, read-out: IC50 for hSGLT1. Type of data set: cell-based. On the procedure:
(1) Creation of CHO-K1 Cells Stably Expressing Human SGLT1
A plasmid vector expressing human SGLT1 protein was transfected into CHO-K1 cells using lipofectamine 2000 (Invitrogen). The cells were cultured in the presence of 500 μg/mL geneticin to select resistant strains, followed by screening in the system shown below using sugar uptake capacity as an indicator to obtain SGLT1-expressing cells.
(3) Inhibition Test for Sodium-Dependent Sugar Uptake in Stably Expressing Cells
The stably expressing cells prepared above were used in the following test.
Pretreatment buffer (140 mM choline chloride, 2 mM KCl, 1 mM CaCl2, 1 mM MgCl2, 10 mM HEPES/5 mM Tris, pH 7.4) was added in a volume of 200 μL to the cells stably expressing SGLT1 or 2 mL for Method A and 200 μL for Method B to the cells stably expressing SGLT2, followed by incubation for 20 minutes. The pretreatment buffer was removed and replaced by uptake buffer containing a test compound (1 mM methyl α-D-glucopyranoside (containing [^14C]methyl α-D-glucopyranoside), 140 mM NaCl, 2 mM KCl, 1 mM CaCl2, 1 mM MgCl2, 10 mM HEPES/5 mM Tris, pH 7.4) in a volume of 75 μL for SGLT1 and SGLT2 in Method B or 200 μL for SGLT2 in Method A. Uptake reaction was performed at 37° C. for 30 minutes (SGLT1) or 60 minutes (SGLT2). After the reaction, the cells were washed twice with washing buffer (10 mM methyl α-D-glucopyranoside, 140 mM choline chloride, 2 mM KCl, 1 mM CaCl2, 1 mM MgCl2, 10 mM HEPES/5 mM Tris, pH 7.4) in a volume of 200 μL for SGLT1 and SGLT2 in Method B or 2 mL for SGLT2 in Method A, and then dissolved in a 0.25 M NaOH solution (75 μL for SGLT1 and SGLT2 in Method B or 400 μL for SGLT2 in Method A). A liquid scintillator (Perkin Elmer) was added and mixed well with each sample, followed by measurement of radioactivity using a β-ray analyzer. For the control group, uptake buffer containing no test compound was prepared. Moreover, another uptake buffer containing choline chloride instead of NaCl was also prepared for basal uptake.
For determination of IC50 values, test compounds prepared at 6 appropriate concentrations were used and their concentrations required for 50% inhibition of the amount of sugar uptake (IC50 values) were calculated relative to the amount of sugar uptake in the control group (100%).

For data set [1], the system named is streptozotocin (STZ)-induced diabetic rats. Put plainly: Oral glucose tolerance test (OGTT) in streptozotocin-induced diabetic model rats. Type of data set: in vivo, rat. As to conditions: oral 1 mg/kg, glucose 2 g/kg, versus vehicle control. On the procedure: (1) Preparation of Diabetic Model Rats
SD/IGS rats at 7 weeks of age (male, Charles River Laboratories Japan Inc.) were fasted for about 16 hours and then injected with 50 mg/kg streptozotocin (STZ) via the tail vein under ether anesthesia to prepare diabetic model rats. Similarly, another group of SD/IGS rats at 7 weeks of age was injected with 1.25 mmol/L citric acid in physiological saline (1 mL/kg) via the tail vein under ether anesthesia to prepare normal control rats. At one week after injection of STZ or 1.25 mmol/L citric acid in physiological saline, the rats were provided for an oral glucose tolerance test.
(2) Oral Glucose Tolerance Test (OGTT)
After the diabetic model rats were fasted for about 16 hours, drug groups were each orally administered with a drug (1 mg/kg) dissolved in a 0.5% aqueous carboxymethylcellulose sodium (CMC) solution, while the control group was orally administered with a 0.5% aqueous CMC solution alone. The drugs used were compounds 10, 11 and 33 disclosed in WO07/136116, as well as compounds 1-2, 5-2, 6-2, 13-2 and 15-2 according to the present invention. Immediately after drug administration, a glucose solution (2 g/kg) was orally administered and blood was collected at 6 points in total: before drug administration (0 hour) and 0.25, 0.5, 1, 1.5 and 2 hours after oral administration.
Blood was collected from the tail vein of each rat without anesthesia using a heparin-coated blood collection tube, and centrifuged to separate plasma. Plasma glucose concentrations were quantified by measurement with a Glucose CII-Test Wako (Wako Pure Chemical Industries, Ltd., Japan). To determine the intensity of hypoglycemic effect, the blood glucose level before drug administration was subtracted from each blood glucose level measured until one hour after oral administration in each drug group, and the resulting values were analyzed by the trapezoidal method to calculate an increment in the area under the curve for glucose (ΔAUC), which was expressed as a decrease relative to ΔAUC of the control group.

Data set [2] is described as follows: Kidney concentrations after repeated oral administration for 3 days. The format is in vivo, rat. As to conditions: 3 mg/kg once a day for 3 days, male Sprague-Dawley rats, 48 hours after final administration. How it is done: (2) Kidney Concentrations of Inventive Compounds After Repeated Oral Administration for 3 Days
SD/IGS rats at 7 weeks of age (male, non-fasting, Charles River Laboratories Japan Inc.) were orally administered once a day for 3 consecutive days with compound 1-2, 5-2, 6-2, 13-2 or 15-2 according to the present invention (3 mg/kg) prepared in a 0.5% aqueous CMC solution. At 48 hours after the final drug administration, the rats were exsanguinated via the postcaval vein under isoflurane anesthesia, and their kidneys were excised after they were confirmed to be euthanized. After the tissue surface was washed with physiological saline, each tissue was measured for its weight and homogenized in 4 volumes of purified water under ice cooling. The drug concentration in each homogenate was determined in the same manner as shown in Test Example 3(1) by LC-MS/MS using compound 11 as an internal standard substance.

The term IC50 denotes the midpoint of a concentration-inhibition curve. In the case of `Cc1cc(/C=C/C(C)(C)C(=O)NC(C)(C)C(=O)NCCN(C)C)ccc1Cc1cc([C@@H]2O[C@H](CO)[C@@H](O)[C@H](O)[C@H]2O)c(O)cc1C(C)C` [Example 1-2], the IC50 on human SGLT1 amounted to 35 nM. Moreover, in data set [1], the “STZ rats OGTT % inhibition ΔAUC0-1 h (mg/dl) @1 mg/kg/po” value (“STZ rats OGTT % inhibition ΔAUC0-1 h” for short) was found to be 74%. The “Concentration of compounds in kidney after 3 days continuous oral administration, After 2 days” value (shortened to “Concentration of compounds in kidney”) in data set [2] is listed as “BLQ^# (BLQ means below lower limit of quantification(5 ng/g))”.

Take `Cc1cc(/C=C/C(C)(C)C(=O)NC(C)(C)C(=O)N2CCC(N(C)C)CC2)ccc1Cc1cc([C@@H]2O[C@H](CO)[C@@H](O)[C@H](O)[C@H]2O)c(O)cc1C(C)C` [Example 5-2]: on human SGLT1, the IC50 was determined as 42 nM. In addition, the “STZ rats OGTT % inhibition ΔAUC0-1 h” value in data set [1] is listed as 66%. The “Concentration of compounds in kidney” value in data set [2] was “BLQ (BLQ means below lower limit of quantification(5 ng/g))”.

`Cc1cc(/C=C/C(C)(C)C(=O)NC(C)(C)C(=O)NCC(C)(C)N)ccc1Cc1cc([C@@H]2O[C@H](CO)[C@@H](O)[C@H](O)[C@H]2O)c(O)cc1C(C)C` [Example 6-2]: at human SGLT1, the IC50 came out at 27 nM. For the same compound, the “STZ rats OGTT % inhibition ΔAUC0-1 h” value in data set [1] was found to be 64%. In addition, in data set [2], the “Concentration of compounds in kidney” value is recorded as “BLQ (BLQ means below lower limit of quantification(5 ng/g))”.

Turning to `COc1cc(C(C)C)c(Cc2ccc(/C=C/C(C)(C)C(=O)NC(C)(C)C(=O)NCC(C)(C)N)cc2C)cc1[C@@H]1O[C@H](CO)[C@@H](O)[C@H](O)[C@H]1O` [Example 13-2], the IC50 on human SGLT1 came out at 54 nM. The “STZ rats OGTT % inhibition ΔAUC0-1 h” value in data set [1] came out at 54%. Also, the “Concentration of compounds in kidney” value in data set [2] was “BLQ (BLQ means below lower limit of quantification(5 ng/g))”.

On to `COc1cc(C(C)C)c(Cc2ccc(/C=C/C(C)(C)C(=O)NC(C)(C)C(=O)NCCN(C)C)cc2)cc1[C@@H]1O[C@H](CO)[C@@H](O)[C@H](O)[C@H]1O` [Example 15-2], for which the IC50 at human SGLT1 is 29 nM. The “STZ rats OGTT % inhibition ΔAUC0-1 h” value in data set [1] came to 62%. Besides, the “Concentration of compounds in kidney” value in data set [2] is “BLQ (BLQ means below lower limit of quantification(5 ng/g))”.
